Patent US20260078130A1, “NAMPT MODULATORS, PREPARATIONS, AND USES THEREOF” (SIRONAX LTD., priority 2022, published 2026)
Where two headings read alike, the source gives them in different places.

Columns and labels:
[1] = molecular target: T1, human enzyme NAMPT (full length) (Homo sapiens, UniProt P43490); assay: NMN fluorescence biochemical assay (stimulation of NMN synthesis by NAMPT); conditions: for EC50: NMN synthesis by purified human NAMPT (100 nM), concentration giving half-maximal activation, read-out: Enzymatic EC50; for Enzymatic Emax: fold change of maximal activation compared to DMSO
T1 construct: human enzyme NAMPT (full length)
T1 sequence (P43490 whole entry): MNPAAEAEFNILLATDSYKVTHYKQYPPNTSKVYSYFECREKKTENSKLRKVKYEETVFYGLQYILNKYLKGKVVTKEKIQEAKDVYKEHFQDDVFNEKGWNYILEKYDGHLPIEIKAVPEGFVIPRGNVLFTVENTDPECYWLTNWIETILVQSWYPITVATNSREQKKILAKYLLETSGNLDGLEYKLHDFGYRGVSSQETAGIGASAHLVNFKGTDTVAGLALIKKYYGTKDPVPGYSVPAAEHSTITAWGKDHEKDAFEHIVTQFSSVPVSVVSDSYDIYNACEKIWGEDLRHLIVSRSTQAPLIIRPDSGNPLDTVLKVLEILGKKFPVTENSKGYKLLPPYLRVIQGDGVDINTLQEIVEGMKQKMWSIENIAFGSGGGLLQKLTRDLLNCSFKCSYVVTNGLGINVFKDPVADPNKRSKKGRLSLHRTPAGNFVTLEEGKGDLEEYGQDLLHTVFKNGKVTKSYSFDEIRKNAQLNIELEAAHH
Summary of the method: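 Full-length human NAMPT (100 nM) was preincubated 15 min at 37 °C with compound in 50 mM Tris-HCl pH 7.5, 10 mM MgCl2, 2 mM DTT, then reacted 1 h at 37 °C with 50 μM NAM, 100 μM PRPP, 4 mM ATP (stated solution concentrations). NMN was derivatised with acetophenone/KOH then formic acid and read at Ex/Em 382/445 nm; EC50 and Emax (fold over DMSO) reported.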

[2] = tested on: endogenous NAMPT in U2OS cells; assay: Cellular NAD+ modulation assay (NAD/NADH-Glo, U2OS cells); format: cell-based; conditions: Homo sapiens; for maximal fold induction: read-out: Cellular Emax
Procedure: Certain compounds described herein were also assayed for their ability to stimulate the endogenous NAMPT in a native cellular environment in a cellular NAD^+ modulation assay. U2OS cells were grown in McCoy's 5A medium with 10% fetal bovine serum, in a humidified incubator with an atmosphere of 95% air and 5% CO2 at 37° C. The assays were initiated by plating 30 μL of U2OS cells in a culture medium with 10% fetal bovine serum, at a density of 3000 cells per well in a Corning® 384-well White/Clear Bottom Polystyrene Microplate. The plates were incubated in 37T incubators for a period of 16 hours. Test compounds with a series of concentrations in DMSO were added to the plates in a volume of 150 nL using Echo Liquid handlers. The plates are then incubated for 24 hours. The medium was removed from the wells, then 10 μL PBS was added to each well. To each well of cells in 10 μL of PBS, 10 μL of base solution with 1% DTAB was added. The plate was briefly mixed on a plate shaker to ensure homogeneity and cell lysis (5 mins). 10p L of 0.4N HCl was added per well. The plate was coved, and all samples were incubated for 15 minutes at 60° C. Then the plate was equilibrated for 10 minutes at room temperature. 10 μL of 0.5M Trizma® base was added to each well of acid-treated cells to neutralize the acid. Finally, 30 μL of NAD/NADH-Glo™ Detection Reagent was added. The plate was gently shaken to mix the samples. The plate was incubated for 40 minutes at room temperature. Luminescence was recorded using a luminometer. The potency measurements for the test compounds were quantified and represented as EC50 (concentration of a compound that gives half-maximal activation) and Emax (fold change of a compound's maximal activation compared to DMSO).

[3] = 24 hours incubation with compound
[4] = 24 hours incubation, cellular NAD+

SMILES: COc1ccc2c(c1)C(C)N(Cc1ccc3[nH]c(=O)oc3c1)C2=O (single isomer, unassigned) [Compound 243]
- EC50 [1]: ≥ 5 µM
- Enzymatic Emax [1]: A (A>3)
- EC50 [2, 3]: 0.5 to 5 µM
- maximal fold induction [2, 3]: > 1.5

SMILES: CC1c2cc(CN(C)C)ccc2C(=O)N1Cc1ccc2[nH]c(=O)oc2c1 (single isomer, unassigned) [Compound 273]
- EC50 [1]: ≥ 5 µM
- Enzymatic Emax [1]: B (3≥B>2)
- EC50 [2, 3]: 0.5 to 5 µM
- maximal fold induction [2, 3]: 1.2 to 1.5

SMILES: CC1c2cc(CN3CCC3)ccc2C(=O)N1Cc1ccc2[nH]c(=O)oc2c1 (single isomer, unassigned) [Compound 274]
- EC50 [1]: ≥ 5 µM
- Enzymatic Emax [1]: B (3≥B>2)
- EC50 [2, 3]: 5 to 50 µM
- maximal fold induction [2, 3]: 1.2 to 1.5

SMILES: CC1c2cc(C3CCCC3)ccc2C(=O)N1Cc1ccc2[nH]c(=O)oc2c1 (single isomer, unassigned) [Compound 304]
- EC50 [1]: 0.5 to 5 µM
- Enzymatic Emax [1]: C (2≥C)
- EC50 [2, 3]: 0.5 to 5 µM
- maximal fold induction [2, 3]: 1.2 to 1.5

SMILES: Cn1ncc(Cl)c1CC1c2ccccc2C(=O)N1C[C@@H]1CC1c1c[nH]nn1 (stereo in doubt) [Compound 548, trans 2-((2-(1H-1,2,3-triazol-4-yl)cyclopropyl)methyl)-3-((4-chloro-1-methyl-1H-pyrazol-5-yl)methyl)isoindolin-1-one]
- Enzymatic Emax [1]: B (3≥B>2)
- EC50 [2, 4]: < 0.5 µM
- maximal fold induction [2, 4]: > 1.5

SMILES: O=c1c2ccccc2ccn1Cc1ccc(O)cc1 [Compound 1, 2-(4-hydroxybenzyl)isoquinolin-1(2H)-one]
- EC50 [1]: ≥ 5 µM
- Enzymatic Emax [1]: A (A>3)
- EC50 [2, 3]: 0.5 to 5 µM
- maximal fold induction [2, 3]: > 1.5

SMILES: O=C1c2ccccc2CCN1Cc1ccc(O)cc1 [Compound 2, 2-(4-hydroxybenzyl)-3,4-dihydroisoquinolin-1(2H)-one]
- EC50 [1]: 0.5 to 5 µM
- Enzymatic Emax [1]: A (A>3)
- EC50 [2, 3]: 0.5 to 5 µM
- maximal fold induction [2, 3]: > 1.5

SMILES: O=C1CCc2ccccc2N1Cc1ccc(O)cc1 [Compound 3, 1-(4-hydroxybenzyl)-3,4-dihydroquinolin-2(1H)-one]
- EC50 [1]: ≥ 5 µM
- Enzymatic Emax [1]: B (3≥B>2)
- EC50 [2, 3]: 5 to 50 µM
- maximal fold induction [2, 3]: 1.2 to 1.5

SMILES: O=c1[nH]c2ccc(Cn3ccc4ccccc4c3=O)cc2o1 [Compound 4, 6-((1-oxoisoquinolin-2(1H)-yl)methyl)benzo[d]oxazol-2(3H)-one]
- EC50 [1]: ≥ 5 µM
- Enzymatic Emax [1]: B (3≥B>2)
- EC50 [2, 3]: 5 to 50 µM
- maximal fold induction [2, 3]: 1.2 to 1.5

SMILES: O=c1ccc2ccccc2n1Cc1ccc(O)cc1 [Compound 5, 1-(4-hydroxybenzyl)quinolin-2(1H)-one]
- EC50 [1]: ≥ 5 µM
- Enzymatic Emax [1]: A (A>3)
- EC50 [2, 3]: 0.5 to 5 µM
- maximal fold induction [2, 3]: 1.2 to 1.5

SMILES: O=c1c2ccccc2ccn1Cc1ccc2[nH]nnc2c1 [Compound 7, 2-((1H-benzo[d][1,2,3]triazol-5-yl)methyl)isoquinolin-1(2H)-one]
- EC50 [1]: ≥ 5 µM
- Enzymatic Emax [1]: B (3≥B>2)
- EC50 [2, 3]: 5 to 50 µM
- maximal fold induction [2, 3]: 1.2 to 1.5

SMILES: O=c1[nH]c2ccc(CN3Cc4ccccc4S3(=O)=O)cc2o1 [Compound 9, 6-((1,1-dioxidobenzo[d]isothiazol-2(3H)-yl)methyl)benzo[d]oxazol-2(3H)-one]
- EC50 [1]: 0.5 to 5 µM
- Enzymatic Emax [1]: B (3≥B>2)
- EC50 [2, 3]: 0.5 to 5 µM
- maximal fold induction [2, 3]: > 1.5

SMILES: O=C1c2ccccc2C(=O)N1Cc1ccc(O)cc1 [Compound 11, 2-(4-hydroxybenzyl)isoindoline-1,3-dione]
- EC50 [1]: ≥ 5 µM
- Enzymatic Emax [1]: B (3≥B>2)
- EC50 [2, 3]: 5 to 50 µM
- maximal fold induction [2, 3]: 1.2 to 1.5

SMILES: O=C1c2ccccc2CN1Cc1ccc(O)cc1 [Compound 12, 2-(4-hydroxybenzyl)isoindolin-1-one]
- EC50 [1]: ≥ 5 µM
- Enzymatic Emax [1]: B (3≥B>2)
- EC50 [2, 3]: 5 to 50 µM
- maximal fold induction [2, 3]: 1.2 to 1.5

SMILES: Cc1ccc2c(c1)C(=O)N(Cc1ccc(O)cc1)C2=O [Compound 14, 2-(4-hydroxybenzyl)-5-methylisoindoline-1,3-dione]
- EC50 [1]: 0.5 to 5 µM
- Enzymatic Emax [1]: B (3≥B>2)
- EC50 [2, 3]: 0.5 to 5 µM
- maximal fold induction [2, 3]: 1.2 to 1.5

SMILES: O=C1c2ccc(Nc3ccccc3)cc2C(=O)N1Cc1ccc(O)cc1 [Compound 15, 2-(4-hydroxybenzyl)-5-(phenylamino)isoindoline-1,3-dione]
- EC50 [1]: 0.5 to 5 µM
- Enzymatic Emax [1]: B (3≥B>2)
- EC50 [2, 3]: < 0.5 µM
- maximal fold induction [2, 3]: ≤ 1.2

SMILES: O=C1c2ccc(Br)cc2C(=O)N1Cc1ccc(O)cc1 [Compound 16, 5-bromo-2-(4-hydroxybenzyl)isoindoline-1,3-dione]
- EC50 [1]: ≥ 5 µM
- Enzymatic Emax [1]: A (A>3)
- EC50 [2, 3]: 0.5 to 5 µM
- maximal fold induction [2, 3]: ≤ 1.2

SMILES: O=C1c2cc(Br)ccc2CN1Cc1ccc(O)cc1 [Compound 19, 6-bromo-2-(4-hydroxybenzyl) isoindolin-1-one]
- EC50 [1]: ≥ 5 µM
- Enzymatic Emax [1]: A (A>3)
- EC50 [2, 3]: 0.5 to 5 µM
- maximal fold induction [2, 3]: 1.2 to 1.5

SMILES: O=C1c2ccc(Br)cc2CN1Cc1ccc(O)cc1 [Compound 20, 5-bromo-2-(4-hydroxybenzyl) isoindolin-1-one]
- EC50 [1]: 0.5 to 5 µM
- Enzymatic Emax [1]: A (A>3)
- EC50 [2, 3]: 0.5 to 5 µM
- maximal fold induction [2, 3]: > 1.5

SMILES: O=C1c2cccc(Br)c2CN1Cc1ccc(O)cc1 [Compound 21, 4-bromo-2-(4-hydroxybenzyl) isoindolin-1-one]
- EC50 [1]: 0.5 to 5 µM
- Enzymatic Emax [1]: B (3≥B>2)
- EC50 [2, 3]: 5 to 50 µM
- maximal fold induction [2, 3]: 1.2 to 1.5

SMILES: Cn1c2ccccc2c(=O)n1Cc1ccc(O)cc1 [Compound 23, 2-(4-hydroxybenzyl)-1-methyl-1,2-dihydro-3H-indazol-3-one]
- EC50 [1]: ≥ 5 µM
- Enzymatic Emax [1]: A (A>3)
- EC50 [2, 3]: 0.5 to 5 µM
- maximal fold induction [2, 3]: > 1.5

SMILES: CCCn1c2ccccc2c(=O)n1Cc1ccc(O)cc1 [Compound 25, 2-(4-hydroxybenzyl)-1-propyl-1,2-dihydro-3H-indazol-3-one]
- EC50 [1]: ≥ 5 µM
- Enzymatic Emax [1]: A (A>3)
- EC50 [2, 3]: 5 to 50 µM
- maximal fold induction [2, 3]: > 1.5

SMILES: CC(C)c1ccc2c(c1)C(=O)N(Cc1ccc(O)cc1)C2=O [Compound 26, 2-(4-hydroxybenzyl)-5-isopropylisoindoline-1,3-dione]
- EC50 [1]: 0.5 to 5 µM
- Enzymatic Emax [1]: A (A>3)
- EC50 [2, 3]: < 0.5 µM
- maximal fold induction [2, 3]: ≤ 1.2

SMILES: N#CCC1c2ccccc2C(=O)N1Cc1ccc(O)cc1 (stereo not drawn) [Compound 27, 2-(2-(4-hydroxybenzyl)-3-oxoisoindolin-1-yl)acetonitrile]
- EC50 [1]: ≥ 5 µM
- Enzymatic Emax [1]: A (A>3)
- EC50 [2, 3]: 5 to 50 µM
- maximal fold induction [2, 3]: > 1.5

SMILES: O=C1c2c(Br)cccc2CN1Cc1ccc(O)cc1 [Compound 29, 7-bromo-2-(4-hydroxybenzyl)isoindolin-1-one]
- EC50 [1]: 0.5 to 5 µM
- Enzymatic Emax [1]: A (A>3)
- EC50 [2, 3]: 5 to 50 µM
- maximal fold induction [2, 3]: > 1.5

SMILES: CC1c2ccccc2C(=O)N1Cc1ccc(O)cc1 (stereo not drawn) [Compound 31, 2-(4-hydroxybenzyl)-3-methylisoindolin-1-one]
- EC50 [1]: 0.5 to 5 µM
- Enzymatic Emax [1]: A (A>3)
- EC50 [2, 3]: 0.5 to 5 µM
- maximal fold induction [2, 3]: > 1.5

SMILES: O=C1c2ccccc2CN1Cc1ccc2[nH]c(=O)oc2c1 [Compound 33, 6-((1-oxoisoindolin-2-yl)methyl)benzo[d]oxazol-2(3H)-one]
- EC50 [1]: ≥ 5 µM
- Enzymatic Emax [1]: A (A>3)
- EC50 [2, 3]: 5 to 50 µM
- maximal fold induction [2, 3]: 1.2 to 1.5

SMILES: Cc1cccc2c1CN(Cc1ccc(O)cc1)C2=O [Compound 34, 2-(4-hydroxybenzyl)-4-methylisoindolin-1-one]
- EC50 [1]: 0.5 to 5 µM
- Enzymatic Emax [1]: B (3≥B>2)
- EC50 [2, 3]: 0.5 to 5 µM
- maximal fold induction [2, 3]: 1.2 to 1.5

SMILES: COc1ccc2c(c1)CN(Cc1ccc(O)cc1)C2=O [Compound 35, 2-(4-hydroxybenzyl)-5-methoxyisoindolin-1-one]
- EC50 [1]: 0.5 to 5 µM
- Enzymatic Emax [1]: A (A>3)
- EC50 [2, 3]: 0.5 to 5 µM
- maximal fold induction [2, 3]: 1.2 to 1.5

SMILES: O=C1c2ccc(N3CCCC3)cc2C(=O)N1Cc1ccc(O)cc1 [Compound 36, 2-(4-hydroxybenzyl)-5-(pyrrolidin-1-yl)isoindoline-1,3-dione]
- EC50 [1]: 0.5 to 5 µM
- Enzymatic Emax [1]: A (A>3)
- EC50 [2, 3]: 0.5 to 5 µM
- maximal fold induction [2, 3]: 1.2 to 1.5

SMILES: Cc1ccc2c(c1)C(=O)N(Cc1ccc3[nH]nnc3c1)C2=O [Compound 37, 2-((1H-benzo[d][1,2,3]triazol-5-yl)methyl)-5-methylisoindoline-1,3-dione]
- EC50 [1]: ≥ 5 µM
- Enzymatic Emax [1]: A (A>3)
- EC50 [2, 3]: 0.5 to 5 µM
- maximal fold induction [2, 3]: ≤ 1.2
